Reference: US9714247B2, “Multiple kinase pathway inhibitors” (Mannkind Corporation, priority 2012, dated 2017)
pEC50, pIC50: −log10 of the molar value. Like-named read-outs stand apart in the source and are kept apart here.

What was measured:
[1] = tested on: DoHH2; test: CellTiter-Glo proliferation/viability assay; type: cell-based, human; conditions: 48 hrs, read-out: DoHH2 EC50
[2] = target: BTK (Homo sapiens (Human), UniProt Q06187)
[3] = target: Src (Homo sapiens (Human), UniProt P12931); conditions: read-out: Src IC50
Src, sequence (P12931 whole entry, looked up): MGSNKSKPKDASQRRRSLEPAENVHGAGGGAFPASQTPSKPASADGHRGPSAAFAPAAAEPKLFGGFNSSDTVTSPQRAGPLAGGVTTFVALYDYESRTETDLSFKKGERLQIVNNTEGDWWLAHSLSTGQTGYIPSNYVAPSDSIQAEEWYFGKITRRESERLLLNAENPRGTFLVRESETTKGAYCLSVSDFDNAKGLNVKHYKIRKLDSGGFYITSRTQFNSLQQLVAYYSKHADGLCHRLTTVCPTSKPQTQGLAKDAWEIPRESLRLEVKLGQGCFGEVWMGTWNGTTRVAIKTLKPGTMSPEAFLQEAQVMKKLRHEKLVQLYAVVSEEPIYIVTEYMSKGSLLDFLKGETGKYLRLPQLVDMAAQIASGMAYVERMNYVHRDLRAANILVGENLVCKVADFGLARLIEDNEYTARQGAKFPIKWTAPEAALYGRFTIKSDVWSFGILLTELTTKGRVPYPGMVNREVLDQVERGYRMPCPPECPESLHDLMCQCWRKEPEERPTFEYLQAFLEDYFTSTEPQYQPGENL

[4] = target: Lyn (Homo sapiens (Human), UniProt P07948); conditions: read-out: Lyn IC50
Lyn, sequence (P07948 whole entry): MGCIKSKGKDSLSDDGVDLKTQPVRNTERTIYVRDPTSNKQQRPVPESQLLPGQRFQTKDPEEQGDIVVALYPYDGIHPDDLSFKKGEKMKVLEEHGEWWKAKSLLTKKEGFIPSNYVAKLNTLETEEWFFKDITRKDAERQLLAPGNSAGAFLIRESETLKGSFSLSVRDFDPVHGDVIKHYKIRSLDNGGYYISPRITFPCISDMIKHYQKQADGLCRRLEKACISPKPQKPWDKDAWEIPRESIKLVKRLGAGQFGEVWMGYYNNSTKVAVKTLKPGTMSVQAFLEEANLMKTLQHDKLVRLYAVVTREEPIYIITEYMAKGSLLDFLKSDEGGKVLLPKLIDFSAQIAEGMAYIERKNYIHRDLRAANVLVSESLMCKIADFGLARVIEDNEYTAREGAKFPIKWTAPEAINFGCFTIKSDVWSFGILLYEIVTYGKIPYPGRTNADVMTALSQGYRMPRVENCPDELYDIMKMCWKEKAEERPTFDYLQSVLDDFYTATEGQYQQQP

[5] = tested on: Ramos; test: CellTiter-Glo proliferation/viability assay; type: cell-based, human; conditions: read-out: Ramos EC50

BTK, sequence (Q06187 whole entry): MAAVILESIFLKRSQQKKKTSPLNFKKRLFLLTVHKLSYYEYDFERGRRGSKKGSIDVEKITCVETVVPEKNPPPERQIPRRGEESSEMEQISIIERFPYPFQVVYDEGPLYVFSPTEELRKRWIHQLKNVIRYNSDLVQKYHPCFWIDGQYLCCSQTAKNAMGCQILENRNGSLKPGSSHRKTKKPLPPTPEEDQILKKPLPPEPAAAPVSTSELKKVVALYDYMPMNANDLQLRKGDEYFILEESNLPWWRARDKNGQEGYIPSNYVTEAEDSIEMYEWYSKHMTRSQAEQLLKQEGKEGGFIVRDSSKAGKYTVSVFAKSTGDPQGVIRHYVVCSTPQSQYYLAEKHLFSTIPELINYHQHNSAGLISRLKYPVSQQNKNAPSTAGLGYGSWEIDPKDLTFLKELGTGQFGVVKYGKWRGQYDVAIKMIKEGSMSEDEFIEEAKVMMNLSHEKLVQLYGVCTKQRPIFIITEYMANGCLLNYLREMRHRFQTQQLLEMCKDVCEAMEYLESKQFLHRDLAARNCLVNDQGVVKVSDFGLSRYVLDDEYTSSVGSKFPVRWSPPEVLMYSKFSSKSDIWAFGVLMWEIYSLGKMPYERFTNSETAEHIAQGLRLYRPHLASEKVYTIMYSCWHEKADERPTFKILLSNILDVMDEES

pIC50 ([2]; read-out: BTK IC50) | pIC50 [3] | pIC50 [4] | pEC50 ([5]; Homo sapiens, Ramos, 48 h) | pEC50 ([5]; Homo sapiens, Ramos, 48 hrs) | pIC50 [2] | pEC50 ([5]; 48 hrs) | Structure (SMILES) | pEC50 ([1]; Homo sapiens, DOHH-2) | pEC50 [1]
– | < 5.30 | < 5.30 | < 5.00 | – | 5.30 to 6.00 | – | CCn1c(=O)c(-c2ccccc2)cc2cnc(Nc3ncc(C)o3)cc21 [Compound 9, 1-Ethyl-7-(5-methyl-oxazol-2-ylamino)-3-phenyl-1H-[1,6]naphthyridin-2-one] | 5.00 to 6.00 | –
< 5.30 | – | – | – | < 5.00 | – | – | CCn1c(=O)c(-c2ccccc2)cc2cnc(NC3=NCCS3)cc21 [Compound 91] | < 5.00 | –
– | < 5.30 | < 5.30 | – | < 5.00 | 5.30 to 6.00 | – | CCn1c(=O)c(-c2ccsc2)cc2cnc(Nc3ccc(C)cn3)cc21 [Compound 10, 1-Ethyl-7-(5-methyl-pyridin-2-ylamino)-3-thiophen-3-yl-1H-[1,6]naphthyridin-2-one] | < 5.00 | –
– | 6.00 | > 7.00 | < 5.00 | – | – | – | CCN(CC)CCOc1ccc(Nc2cc3c(cn2)cc(-c2ccccc2)c(=O)n3CC)cc1 [Compound 86] | 5.00 to 6.00 | –
– | > 7.00 | > 7.00 | < 5.00 | – | 6.00 to 7.00 | – | CCn1c(=O)c(-c2c(Cl)cccc2Cl)cc2cnc(Nc3ccc(F)cn3)cc21 [Compound 76, 3-(2,6-dichlorophenyl)-1-ethyl-7-((5-fluoropyridin-2-yl)amino)-1,6-naphthyridin-2(1H)-one] | > 6.00 | –
< 5.30 | < 5.30 | < 5.30 | – | < 5.00 | – | – | CCn1c(=O)c(-c2cccc(F)c2)cc2cnc(Nc3ccc(C)cn3)cc21 [Compound 29, 1-ethyl-3-(3-fluorophenyl)-7-(5-methylpyridin-2-ylamino)-1,6-naphthyridin-2(1H)-one] | < 5.00 | –
– | < 5.30 | < 5.30 | – | < 5.00 | 6.00 to 7.00 | – | CCn1c(=O)c(-c2cccs2)cc2cnc(Nc3ccc(C)cn3)cc21 [Compound 11, 1-Ethyl-7-(5-methyl-pyridin-2-ylamino)-3-thiophen-2-yl-1H-[1,6]naphthyridin-2-one] | < 5.00 | –
– | < 5.30 | < 5.30 | < 5.00 | – | 5.30 to 6.00 | – | CCn1c(=O)c(-c2ccccc2)cc2cnc(Nc3cccnn3)cc21 [Compound 112, 1-ethyl-3-phenyl-7-(pyridazin-3-ylamino)-1,6-naphthyridin-2(1H)-one] | < 5.00 | –
< 5.30 | < 5.30 | < 5.30 | – | < 5.00 | – | – | CCn1c(=O)c(-c2ccc(F)cc2)cc2cnc(Nc3ccc(C)cn3)cc21 [Compound 26] | < 5.00 | –
< 5.30 | – | – | – | < 5.00 | – | – | CCn1c(=O)c(-c2ccccc2)cc2cnc(NC3=NCCO3)cc21 [Compound 90] | < 5.00 | –

Second part, the compound before the results:

Structure (SMILES) | pIC50 ([2]; read-out: BTK IC50) | pIC50 [3] | pIC50 [4] | pEC50 ([5]; Homo sapiens, Ramos, 48 h) | pEC50 ([5]; Homo sapiens, Ramos, 48 hrs) | pIC50 [2] | pEC50 ([5]; 48 hrs) | pEC50 ([1]; Homo sapiens, DOHH-2) | pEC50 [1]
CCn1c(=O)c(-c2c(Cl)cccc2Cl)cc2cnc(Nc3ccc(N(C)C4CCN(C)CC4)cn3)cc21 [Compound 121, 3-(2,6-dichlorophenyl)-1-ethyl-7-((5-(methyl(1-methylpiperidin-4-yl)amino)pyridin-2-yl)amino)-1,6-naphthyridin-2(1H)-one] | > 7.00 | > 7.00 | > 7.00 | 5.00 to 6.00 | – | – | – | > 6.00 | –
CN1CCN(CCCn2c(=O)c(-c3c(F)cccc3F)cc3cnc(Nc4ccc(F)cn4)cc32)CC1 [Compound 132, 3-(2,6-difluorophenyl)-7-((5-fluoropyridin-2-yl)amino)-1-(3-(4-methylpiperazin-1-yl)propyl)-1,6-naphthyridin-2(1H)-one] | > 7.00 | > 7.00 | > 7.00 | – | < 5.00 | – | – | > 6.00 | –
CCN(CC)CCOc1ccc(Nc2cc3c(cn2)cc(-c2c(F)ccc(Cl)c2F)c(=O)n3CC)nc1 [Compound 97, 3-(3-chloro-2,6-difluorophenyl)-7-((5-(2-(diethylamino)ethoxy)pyridin-2-yl)amino)-1-ethyl-1,6-naphthyridin-2(1H)-one] | – | > 7.00 | > 7.00 | 5.00 to 6.00 | – | 6.00 to 7.00 | – | > 6.00 | –
O=c1c(-c2c(F)cccc2F)cc2cnc(Nc3ccc(F)cn3)cc2n1-c1ccccc1 [Compound 81, 3-(2,6-difluorophenyl)-7-((5-fluoropyridin-2-yl)amino)-1-phenyl-1,6-naphthyridin-2(1H)-one] | – | > 7.00 | > 7.00 | < 5.00 | – | – | – | 5.00 to 6.00 | –
CCn1c(=O)c(-c2c(C)cc(F)cc2C)cc2cnc(Nc3ccc(N(C)C4CCN(C)CC4)cn3)cc21 [Compound 124, 1-ethyl-3-(4-fluoro-2,6-dimethylphenyl)-7-((5-(methyl(1-methylpiperidin-4-yl)amino)pyridin-2-yl)amino)-1,6-naphthyridin-2(1H)-one] | > 7.00 | > 7.00 | > 7.00 | – | < 5.00 | – | – | > 6.00 | –
CCn1c(=O)c(-c2cc(OC)ccc2F)cc2cnc(Nc3ccc(N(C)C4CCN(C)CC4)cn3)cc21 [Compound 119, 1-ethyl-3-(2-fluoro-5-methoxyphenyl)-7-((5-(methyl(1-methylpiperidin-4-yl)amino)pyridin-2-yl)amino)-1,6-naphthyridin-2(1H)-one] | – | – | – | – | 5.00 to 6.00 | 6.00 to 7.00 | – | > 6.00 | –
CCn1c(=O)ccc2cnc(Nc3ccc(C)cn3)cc21 [Compound 87] | – | < 5.30 | < 5.30 | 5.00 to 6.00 | – | 5.30 to 6.00 | – | 5.00 to 6.00 | –
CCN(CC)CCOc1ccc(Nc2cc3c(cn2)cc(C(C)C)c(=O)n3C2CC2)nc1 [Compound 36, 1-Cyclopropyl-7-[5-(2-diethylamino-ethoxy)-pyridin-2-ylamino]-3-isopropyl-1H-[1,6]naphthyridin-2-one] | – | – | – | < 5.00 | – | – | – | 5.00 to 6.00 | –
CN1CCC(N(C)c2ccc(Nc3cc4[nH]c(=O)c(-c5c(F)cccc5F)cc4cn3)nc2)CC1 [Compound 140, 3-(2,6-difluorophenyl)-7-((5-(methyl(1-methylpiperidin-4-yl)amino)pyridin-2-yl)amino)-1,6-naphthyridin-2(1H)-one] | > 7.00 | > 7.00 | > 7.00 | – | 5.00 to 6.00 | – | – | > 6.00 | –
O=c1c(-c2c(F)cccc2F)cc2cnc(Nc3ccc(F)cn3)cc2n1CCCN1CCOCC1 [Compound 131, 3-(2,6-difluorophenyl)-7-((5-fluoropyridin-2-yl)amino)-1-(3-morpholinopropyl)-1,6-naphthyridin-2(1H)-one] | – | > 7.00 | > 7.00 | – | < 5.00 | 6.00 to 7.00 | – | > 6.00 | –
CCN(CC)CCOc1ccc(Nc2cc3c(cn2)cc(-c2c(Cl)cccc2OC)c(=O)n3CC)nc1 [Compound 108, 3-(2-chloro-6-methoxyphenyl)-7-((5-(2-(diethylamino)ethoxy)pyridin-2-yl)amino)-1-ethyl-1,6-naphthyridin-2(1H)-one] | > 7.00 | > 7.00 | > 7.00 | – | < 5.00 | – | – | > 6.00 | –
CCn1c(=O)c(C(C)C)cc2cnc(Nc3ccc(C)cn3)cc21 [Compound 13, 1-Ethyl-3-isopropyl-7-(5-methyl-pyridin-2-ylamino)-1H-[1,6]naphthyridin-2-one] | – | < 5.30 | < 5.30 | 5.00 to 6.00 | – | 5.30 to 6.00 | – | 5.00 to 6.00 | –
CCN(CC)CCOc1ccc(Nc2cc3c(cn2)cc(-c2c(Cl)cccc2Cl)c(=O)n3C2CCOC2)nc1 (single isomer, unassigned) [Compound 146, (R or S)-3-(2,6-dichlorophenyl)-7-((5-(2-(diethylamino)ethoxy)pyridin-2-yl)amino)-1-(tetrahydrofuran-3-yl)-1,6-naphthyridin-2(1H)-one] | > 7.00 | > 7.00 | > 7.00 | – | – | – | 5.00 to 6.00 | – | > 6.00
CN(C)CCCn1c(=O)c(-c2c(F)cccc2F)cc2cnc(Nc3ccc(F)cn3)cc21 [Compound 130, 3-(2,6-difluorophenyl)-1-(3-(dimethylamino)propyl)-7-((5-fluoropyridin-2-yl)amino)-1,6-naphthyridin-2(1H)-one] | > 7.00 | > 7.00 | > 7.00 | – | 5.00 to 6.00 | – | – | > 6.00 | –
CCn1c(=O)c(CC(C)C)cc2cnc(Nc3ccc(C)cn3)cc21 [Compound 20, 1-Ethyl-3-isobutyl-7-(5-methyl-pyridin-2-ylamino)-1H-[1,6]naphth yridin-2-one] | – | < 5.30 | < 5.30 | < 5.00 | – | 6.00 to 7.00 | – | < 5.00 | –
O=c1c(-c2c(F)cccc2F)cc2cnc(Nc3ccc(F)cn3)cc2n1C1CCOCC1 [Compound 80, 3-(2,6-difluorophenyl)-7-((5-fluoropyridin-2-yl)amino)-1-(tetrahydro-2H-pyran-4-yl)-1,6-naphthyridin-2(1H)-one] | – | < 5.30 | > 7.00 | < 5.00 | – | – | – | > 6.00 | –
CN1CCC(N(C)c2ccc(Nc3cc4c(cn3)cc(-c3c(F)cccc3F)c(=O)n4C3CCCC3)nc2)CC1 [Compound 139, 1-cyclopentyl-3-(2,6-difluorophenyl)-7-((5-(methyl(1-methylpiperidin-4-yl)amino)pyridin-2-yl)amino)-1,6-naphthyridin-2(1H)-one] | > 7.00 | > 7.00 | > 7.00 | 5.00 to 6.00 | – | – | – | > 6.00 | –
CCOC(=O)/C=C/c1cc2cnc(Nc3ccc(C)cn3)cc2n(CC)c1=O [Compound 38] | < 5.30 | < 5.30 | < 5.30 | – | < 5.00 | – | – | < 5.00 | –
